Results from patent publication US20260226071A1, “2, 4-DIANILINOPYRIMIDINE-BASED AURORA-A KINASE SELECTIVE DEGRADATION INDUCING COMPOUNDS” (UPPTHERA, INC., priority 2023, published 2026).
pIC50: −log10 of the molar value.

Legend:
NCI-H446 cell line = experiment: Cell viability assay for NCI-H446 cell line; type: cell-based; settings: Homo sapiens, NCI-H446, 120 h; H446 cells, 5 days culture, EZ-Cytox; read-out: IC50 value (Level)
Source text: The NCI-H446 (hereafter H446) cell lines were provided from American Type Culture Collection (ATCC). For cell culture, RPMI medium 1640 (Gibco, Cat. No. 22400-089; Lot. No. 2522717), FBS (Gibco, Cat. No. 16000-044; Lot. No. 2716756P), Penicillin/Streptomycin (PS) (Gibco, Cat. No. 15140-122; Lot. No. 2585636), 75T cell culture flask (SPL, Cat. No. 70075), 96 well cell culture plate (SPL, Cat. No. 30096), PBS pH 7.4 (Gibco, Cat. No. 10010-023; Lot. No. 2561466), TrypLE™ Express (Gibco, Cat. No. 12605-010; Lot. No. 2492811), counting chamber (hematocytometer) (Hirschmann, Cat. No. 8100204) and 0.4% Trypan Blue solution (DYNEBIO, Cat. No. CBT3710; Lot. No. 20231017) were used. Cells were cultured in RPMI 1640 medium supplemented with 10% FBS and 1% PS and incubated at 37° C., 5% CO2 condition in CO2 incubator (ThermoScientific, Cat. No. 4111).
For experiment, the present compounds were fully dissolved in DMSO (Sigma-Aldrich Cat. No. D2438, Lot. No. RNBL7287.
In each well of 96-well cell culture plate, […] cells of H446 cell lines were seeded in 150 μl of total medium volume. After 24 hours of cell seeding, the present compounds were treated.
The present compounds were each diluted 3-folds from the highest concentration of 1000 nM to the lowest concentration of 0.15 nM. The compound was added to each well to make the total volume of […] and the cells were cultured for 5 days in CO2 incubator (Thermo Fisher Science, Cat. No. 4111).
Thereafter, 20 μl of EZ-Cytox (DOGEN, Cat. NO. EZ-3000, Lot. No. DLS2308) was added to each well and the cells were cultured for 4 hours at the same condition in CO2 incubator. After culture, the absorbance of the sample was measured by setting the wavelength of a plate reader (BMG Labtech, CLARIOstar Plus) to […]. The samples were shaked for 2 minutes in the plate reader before measurement.

Aurora kinase A (AURKA) = biological target: T1, Aurora kinase A (AURKA) (Homo sapiens, UniProt O14965); experiment: Luciferase assay for AURKA in HeLa LgBit (AURKA-HiBit KI) cell line; type: cell-based; settings: HeLa LgBit (AURKA-HiBit KI) cells, measured after 12 hours
T1 construct: endogenous in cells; host or cells: HeLa LgBit (AURKA-HiBit KI), CRISPR/Cas9 knock-in at the endogenous AURKA locus
T1 sequence (O14965 1-403): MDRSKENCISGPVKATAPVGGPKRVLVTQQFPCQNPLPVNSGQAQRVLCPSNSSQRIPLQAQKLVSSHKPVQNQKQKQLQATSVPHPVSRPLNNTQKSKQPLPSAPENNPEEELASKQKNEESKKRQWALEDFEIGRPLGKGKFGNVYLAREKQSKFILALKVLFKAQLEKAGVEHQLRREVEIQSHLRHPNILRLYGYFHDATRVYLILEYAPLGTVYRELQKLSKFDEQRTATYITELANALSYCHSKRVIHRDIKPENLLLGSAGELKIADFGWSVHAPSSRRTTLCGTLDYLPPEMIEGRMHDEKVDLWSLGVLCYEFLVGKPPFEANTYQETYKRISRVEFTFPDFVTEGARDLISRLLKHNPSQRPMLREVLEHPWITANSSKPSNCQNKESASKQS
In short: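 Test compounds (10 nM or 100 nM) added to AURKA-HiBit knock-in HeLa LgBit cells that had been pre-loaded with Endurazine for 2 h following an 18 h culture at 3×10^4 cells. Endogenous AURKA-HiBit level followed by luminescence (470-480 nm), measured after 12 h.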

luminescence value (Level) (Aurora kinase A (AURKA); 10 nM compound) | luminescence value (Level) (Aurora kinase A (AURKA); 100 nM compound) | SMILES | pIC50 (NCI-H446 cell line)
A (A is <0.3) | A (A is <0.2) | O=C1CCC(c2ccc(N3CCN(CCC4CCN(NC(=O)c5ccc(Nc6ncc(F)c(Nc7ccc(NC(=O)c8ccccc8Cl)cc7)n6)cc5)CC4)CC3)cc2)C(=O)N1 (stereo not drawn) [Compound 93, 2-chloro-N-(4-((2-((4-((4-(2-(4-(4-(2,6-dioxopiperidin-3-yl)phenyl)piperazin-1-yl)ethyl)piperidin-1-yl)carbamoyl)phenyl)amino)-5-fluoropyrimidin-4-yl)amino)phenyl)benzamide] | > 7.30
A (A is <0.3) | A (A is <0.2) | O=C1CCC(c2ccc(N3CCN(CC[C@H]4CC[C@H](NC(=O)c5ccc(Nc6ncc(F)c(Nc7ccc(C(=O)Nc8ccccc8Cl)cc7)n6)cc5)CC4)CC3)cc2)C(=O)N1 (stereo partly drawn) [Compound 17, N-(2-chlorophenyl)-4-((2-((4-(((1r,4r)-4-(2-(4-(4-(2,6-dioxopiperidin-3-yl)phenyl)piperazin-1-yl)ethyl)cyclohexyl)carbamoyl)phenyl)amino)-5-fluoropyrimidin-4-yl)amino)benzamide] | 7.00 to 7.30
A (A is <0.3) | A (A is <0.2) | C[C@@H](CN1CCN(c2ccc(C3CCC(=O)NC3=O)cc2)CC1)C1CCN(NC(=O)c2ccc(Nc3ncc(F)c(Nc4ccc(C(=O)Nc5ccccc5Cl)cc4)n3)cc2)CC1 (stereo partly drawn) [Compound 79, N-(2-chlorophenyl)-4-((2-((4-((4-((2R)-1-(4-(4-(2,6-dioxopiperidin-3-yl)phenyl)piperazin-1-yl)propan-2-yl)piperidin-1-yl)carbamoyl)phenyl)amino)-5-fluoropyrimidin-4-yl)amino)benzamide] | > 7.30
B (B is 0.3 to 0.5) | A (A is <0.2) | O=C1CCC(c2ccc(N3CCC(N4CCC5(CC4)CC(NC(=O)c4ccc(Nc6ncc(F)c(Nc7ccc(C(=O)Nc8ccccc8Cl)cc7)n6)cc4)C5)CC3)c(F)c2)C(=O)N1 (stereo not drawn) [Compound 21, N-(2-chlorophenyl)-4-((2-((4-((7-(1-(4-(2,6-dioxopiperidin-3-yl)-2-fluorophenyl)piperidin-4-yl)-7-azaspiro[3.5]nonan-2-yl)carbamoyl)phenyl)amino)-5-fluoropyrimidin-4-yl)amino)benzamide] | > 7.30
B (B is 0.3 to 0.5) | A (A is <0.2) | O=C1CCC(c2ccc(N3CCN(C[C@H]4CC[C@H](NC(=O)c5ccc(Nc6ncc(F)c(Nc7ccc(C(=O)Nc8ccccc8Cl)cc7)n6)cc5)CC4)CC3)cc2)C(=O)N1 (stereo partly drawn) [Compound 16, N-(2-chlorophenyl)-4-((2-((4-(((1r,4r)-4-((4-(4-(2,6-dioxopiperidin-3-yl)phenyl)piperazin-1-yl)methyl)cyclohexyl)carbamoyl)phenyl)amino)-5-fluoropyrimidin-4-yl)amino)benzamide] | 7.00 to 7.30
A (A is <0.3) | A (A is <0.2) | O=C1CCC(c2ccc(N3CCN(CCCN4CCC(NC(=O)c5ccc(Nc6ncc(F)c(Nc7ccc(C(=O)Nc8ccccc8Cl)cc7)n6)cc5)CC4)CC3)cc2)C(=O)N1 (stereo not drawn) [Compound 71, N-(2-chlorophenyl)-4-((2-((4-((1-(3-(4-(4-(2,6-dioxopiperidin-3-yl)phenyl)piperazin-1-yl)propyl)piperidin-4-yl)carbamoyl)phenyl)amino)-5-fluoropyrimidin-4-yl)amino)benzamide] | 6.82 to 7.00
B (B is 0.3 to 0.5) | A (A is <0.2) | O=C1CCC(c2ccc(N3CCC(CN4CCC(NC(=O)c5ccc(Nc6ncc(F)c(Nc7ccc(C(=O)Nc8ccccc8Cl)cc7)n6)cc5)CC4)C3)cc2)C(=O)N1 (stereo not drawn) [Compound 9, N-(2-chlorophenyl)-4-((2-((4-((1-((1-(4-(2,6-dioxopiperidin-3-yl)phenyl)pyrrolidin-3-yl)methyl)piperidin-4-yl)carbamoyl)phenyl)amino)-5-fluoropyrimidin-4-yl)amino)benzamide] | > 7.30
B (B is 0.3 to 0.5) | A (A is <0.2) | O=C1CCC(c2ccc(N3CCN(CC(=O)N4CCC(NC(=O)c5ccc(Nc6ncc(F)c(Nc7ccc(C(=O)Nc8ccccc8Cl)cc7)n6)cc5)CC4)CC3)cc2)C(=O)N1 (stereo not drawn) [Compound 5, N-(2-chlorophenyl)-4-((2-((4-((1-(2-(4-(4-(2,6-dioxopiperidin-3-yl)phenyl)piperazin-1-yl)acetyl)piperidin-4-yl)carbamoyl)phenyl)amino)-5-fluoropyrimidin-4-yl)amino)benzamide] | > 7.30
A (A is <0.3) | A (A is <0.2) | O=C1CCC(c2ccc(N3CCN(CCC4CCN(NC(=O)c5ccc(Nc6ncc(F)c(Nc7ccccc7)n6)cc5)CC4)CC3)cc2)C(=O)N1 (stereo not drawn) [Compound 58, N-(4-(2-(4-(4-(2,6-dioxopiperidin-3-yl)phenyl)piperazin-1-yl)ethyl)piperidin-1-yl)-4-((5-fluoro-4-(phenylamino)pyrimidin-2-yl)amino)benzamide] | > 7.30
A (A is <0.3) | A (A is <0.2) | O=C1CCC(c2ccc(N3CCN(CCC4CCN(NC(=O)c5ccc(Nc6ncc(F)c(Nc7ccc(C(=O)Nc8ccccc8Cl)cn7)n6)cc5)CC4)CC3)cc2)C(=O)N1 (stereo not drawn) [Compound 98, N-(2-chlorophenyl)-6-((2-((4-((4-(2-(4-(4-(2,6-dioxopiperidin-3-yl)phenyl)piperazin-1-yl)ethyl)piperidin-1-yl)carbamoyl)phenyl)amino)-5-fluoropyrimidin-4-yl)amino) nicotinamide] | 6.82 to 7.00
A (A is <0.3) | A (A is <0.2) | O=C1CCC(c2ccc(N3CCN(CCC4CCN(NC(=O)c5ccc(Nc6ncc(F)c(Nc7ccc(C(=O)Nc8ccccc8Cl)cc7)n6)cc5)CC4)CC3)cn2)C(=O)N1 (stereo not drawn) [Compound 88, N-(2-chlorophenyl)-4-((2-((4-((4-(2-(4-(6-(2,6-dioxopiperidin-3-yl)pyridin-3-yl)piperazin-1-yl)ethyl)piperidin-1-yl)carbamoyl)phenyl)amino)-5-fluoropyrimidin-4-yl)amino)benzamide] | > 7.30
A (A is <0.3) | A (A is <0.2) | CN(CCN1CCN(c2ccc(C3CCC(=O)NC3=O)cc2)CC1)[C@H]1CC[C@H](NC(=O)c2ccc(Nc3ncc(F)c(Nc4ccc(C(=O)Nc5ccccc5Cl)cc4)n3)cc2)CC1 (stereo partly drawn) [Compound 75, N-(2-chlorophenyl)-4-((2-((4-(((1r,4r)-4-((2-(4-(4-(2,6-dioxopiperidin-3-yl)phenyl)piperazin-1-yl)ethyl)(methyl)amino)cyclohexyl)carbamoyl)phenyl)amino)-5-fluoropyrimidin-4-yl)amino)benzamide] | 7.00 to 7.30
B (B is 0.3 to 0.5) | B (B is 0.2 to 0.4) | O=C1CCC(Nc2ccc(N3CC(CN4CC5CN(C(=O)c6ccc(Nc7ncc(F)c(Nc8ccc(C(=O)Nc9ccccc9Cl)cc8)n7)cc6)CC5C4)C3)cc2)C(=O)N1 (stereo not drawn) [Compound 35, N-(2-chlorophenyl)-4-((2-((4-(5-((1-(4-((2,6-dioxopiperidin-3-yl)amino)phenyl)azetidin-3-yl)methyl)octahydropyrrolo[3,4-c]pyrrole-2-carbonyl)phenyl)amino)-5-fluoropyrimidin-4-yl)amino)benzamide] | 6.70 to 6.82
